According to patent US20240277246A1, “MANGANESE-ENHANCED MAGNETIC RESONANCE IMAGING” (IC Targets AS, priority 2021, published 2024):
Read-outs that look alike come from different tables or passages of the source.

Assays:
[1] = corresponds to end of infusion
Description: A midventricular short axis view was used and a region of interest in the left ventricle myocardium and a region of interest in the blood in the ventricular cavity were used for measurements. […] The total infusion time was 7.5 minutes. T1 mapping MRI was performed every 2.5 minutes for a total of 40 minutes to collect data for kinetic analysis.
After the examination, the myocardial T1 values were converted to changes in relaxation rates from the baseline values according to equation 12. The heamocrit for the subject was measured to 0.41 and the plasma T1 values were converted to changes in relaxation rates according to equation 13.
A midventricular short axis view was used in each patient and a region of interest in the left ventricle myocardium and a region of interest in the blood in the ventricular cavity was used for measurements. […] The total infusion time was 7.5 minutes. T1 mapping MRI was performed every 2.5 minutes for a total of 40 minutes to collect data for kinetic analysis.
After the examinations, the myocardial T1 values were converted to changes in relaxation rates from the baseline values according to equation 12. The average heamocrit for the 5 subjects was measured to 0.416 and the plasma T1 values were converted to changes in relaxation rates according to equation 13.

[2] = tested on: cardiomyocytes (left ventricle myocardium; uptake via L-type calcium channels); experiment: Manganese-enhanced T1 mapping MRI, kinetic analysis of cardiomyocyte cellular manganese uptake after MnDPDP infusion; format: in vivo, human
Description: A midventricular short axis view was used and a region of interest in the left ventricle myocardium and a region of interest in the blood in the ventricular cavity was used for measurements. […] The total infusion time was 7.5 minutes. T1 mapping MRI was performed every 2.5 minutes for a total of 40 minutes to collect data for kinetic analysis.
After the examination, the myocardial T1 values were converted to changes in relaxation rates from the baseline values according to equation 12. The heamocrit for the subject was measured to 0.44 and the plasma T1 values were converted to changes in relaxation rates according to equation 13.
This is what would be expected from the loss of cells without a loss of individual cell function. Thus, by applying the prior art method, it would therefore wrongly be concluded that the cellular manganese flux rate was reduced.
The rate constant for cardiomyocyte intracellular relaxivity increase Kcell^ΔR1, and thus the cardiomyocyte cellular manganese uptake rate Kcell^Mn, was calculated according to the invention, applying equation 20 where the constant KECF was set equal to 1. The Kcell^Mn value was 0.0650 min^−1. The data used to calculate the rate constant is shown graphically in FIG. 8 (“ict”), corresponding to a straight line with slope=Kcell^Mn=0.0650 min^−1 and intercept=ECV=0.35. […]
If the ECF was in equilibrium with plasma, the slope would be the ECV=0.322. However, due to the uptake of manganese into the cardiomyocytes, the ECF is in dynamic equilibrium with plasma with a manganese concentration ratio of
Assuming that the rate constant for diffusion between plasma and the ECF is the same in both directions, K1=K2 and K3/K1=1/KECF−1=1/0.72−1=0.40.
When the ratio between the manganese concentration in the ECF and plasma can be estimated, the apparent cellular rate constant Kcell^Mn*KECF can be converted to the actual cellular uptake rate constant Kcell^Mn by division with KECF.

time at which plasma ΔR1 is highest ([1]; healthy volunteer): 7.5 min
Structure (SMILES): Cc1ncc(COP(=O)(O)O)c(CN(CCN(CC(=O)[O-])Cc2c(COP(=O)(O)O)cnc(C)c2O)CC(=O)[O-])c1O.[Mn+2] [MnDPDP, manganese (II) N,N′-dipyridoxyl-ethylenediamine-N,N′-diacetate-5,5′-bis(phosphate)]
time at which plasma ΔR1 is highest ([1]; average of 5 patients with hypertrophic cardiomyopathia): 7.5 min
time at which plasma ΔR1 is highest ([1]; patient with dilated cardiomyopathia): 7.5 min
cardiomyocyte cellular manganese uptake rate Kcell^Mn (corrected by division with KECF) ([2]; average of 5 patients with hypertrophic cardiomyopathia, KECF 0.72): 0.096
apparent cellular rate constant Kcell^Mn*KECF ([2]; average of 5 patients with hypertrophic cardiomyopathia, linear regression without restrictions to the intercept): 0.0691
slope of the Patlak line (prior art method) ([2]; healthy volunteer, 5 μmol/kg infusion over 7.5 min): 0.0484 min⁻¹
cardiomyocyte cellular manganese uptake rate Kcell^Mn ([2]; healthy volunteer, 5 μmol/kg infusion over 7.5 min, equation 20, KECF set to 1, forced intercept ECV 0.25): 0.0591 min⁻¹
uptake rate constant by the Patlak method of prior art ([2]; patient with dilated cardiomyopathia, 5 μmol/kg infusion over 7.5 min): 0.0429
cardiomyocyte cellular manganese uptake rate Kcell^Mn ([2]; patient with dilated cardiomyopathia, 5 μmol/kg infusion over 7.5 min, equation 20, KECF set to 1, forced intercept ECV 0.35): 0.0650 min⁻¹
